Measurements from article PMC12935787, “Clinical pharmacokinetics and pharmacometabolomics of Andrographis paniculata capsules: Bridging drug disposition and metabolic response to precision medicine” (Naunyn-Schmiedeberg's Archives of Pharmacology, 2025).
Like-named read-outs stand apart in the source and are kept apart here.

Experiments:
[1] = parameters: method as in Songvut et al. [2023b]; conditions: AP dose corresponding to 60 mg of andrographolide; ref Songvut et al. [2023b]; cited from earlier work
[2] = Clinical pharmacokinetics, plasma LC-MS/MS after single oral dose of AP capsules; type: in vivo, human (healthy volunteers); conditions: human, plasma; for concentration at 0 h / concentration at 0.5 h / concentration at 1 h / concentration at 1.5 h / concentration at 2 h / concentration at 2.5 h / concentration at 3 h / concentration at 3.5 h / concentration at 4 h / concentration at 5 h / concentration at 6 h / concentration at 8 h / concentration at 10 h / concentration at 12 h / concentration at 24 h: oral, 2000 mg, 2000 mg AP capsules; for concentration at 0.5 h: 0.50 h; for concentration at 1.5 h: 1.50 h; for concentration at 2.5 h: 2.50 h; for concentration at 3.5 h: 3.50 h
Description: The protocol was published (Tee et al. [2022]).
Seven calibrators ranging from 1, 2, 5,10, 20, 50, and 100 ng mL^−1 were prepared. Frozen plasma was thawed, vortexed-mixes, and processed via protein precipitation: 50 µL plasma plus 100 µL 0.01% ammonia in methanol were vortexed (20 s), centrifuged (14800 rpm, 5 min) and […] supernatant was transferred to 2 mL vials with inserts. LC–MS/MS injection volume: 10 µL. The separation used a Phenomenex Gemini-NX C18 column (150 × 2.1 mm, 5 μm) with 0.01% ammonia (A) and acetonitrile/methanol (1:1, B) as mobile phases (0.30 mL min^-1). The gradient program: 40% B (0 min), linear increase to 95% B (3 min), hold to 5 min, sharp decrease to 10% B (5.01 min), hold to 7 min, return to 40% B (7.01 min), and re-equilibration to 10 min. Mass detection employed an LCMS-8060NX triple quadrupole with heated ESI in negative mode, monitoring specific MRM transitions: andrographolide (349.3 → 331.2/287.1), 14-deoxyandrographolide (331.2 → 108.0/301.1), and neoandrographolide (479.1 → 317.4/161.1).
Pharmacokinetic parameters were determined from plasma samples (5 subjects, 15 time points) analyzed via LC–MS/MS (Shimadzu 8060NX). […] Specific MRM transitions for andrographolide, 14-deoxyandrographolide, and neoandrographolide in plasma samples of subjects are illustrated in Figure S3. […] The dose-dependent concentration–time curves, pharmacokinetics profiles (Fig. 2a, b and c) and comprehensive individual PK data (Table S4) provide a foundation for developing personalized AP dosing regimens, supporting its precision medicine potential.

[3] = S1, read-out: Plasma concentration
[4] = S2, read-out: Plasma concentration
[5] = S3, read-out: Plasma concentration
[6] = S4, read-out: Plasma concentration
[7] = S5, read-out: Plasma concentration
[8] = mean n=5, read-out: Mean concentration
[9] = 2000 mg AP capsules oral, fasting, n=5

Q: Which results are given for C=C1CC[C@@H]2[C@](C)(CO[C@@H]3O[C@H](CO)[C@@H](O)[C@H](O)[C@H]3O)CCC[C@@]2(C)[C@@H]1CCC1=CCOC1=O [neoandrographolide]?
A: Cmax, previously reported [1]: 0.0244 ± 0.0056 µg/mL; Tmax, previously reported [1]: 54 min; concentration at 0 h [2, 3]: 0 µg/mL; concentration at 0.5 h [2, 3]: 0.0132 µg/mL; concentration at 1 h [2, 3]: 0.0213 µg/mL; concentration at 1.5 h [2, 3]: 0.0414 µg/mL; concentration at 2 h [2, 3]: 0.032 µg/mL; concentration at 2.5 h [2, 3]: 0.0197 µg/mL; concentration at 3 h [2, 3]: 0.0241 µg/mL; concentration at 3.5 h [2, 3]: 0.0222 µg/mL; concentration at 4 h [2, 3]: 0.00667 µg/mL; concentration at 5 h [2, 3]: 0.0113 µg/mL; concentration at 6 h [2, 3]: 0.00457 µg/mL; concentration at 8 h [2, 3]: 0.00097 µg/mL; concentration at 10 h [2, 3]: 0 µg/mL; concentration at 12 h [2, 3]: 0 µg/mL; concentration at 24 h [2, 3]: 0 µg/mL; concentration at 0 h [2, 4]: 0 µg/mL; concentration at 0.5 h [2, 4]: 0.00077 µg/mL; concentration at 1 h [2, 4]: 0.0453 µg/mL; concentration at 1.5 h [2, 4]: 0.0437 µg/mL; concentration at 2 h [2, 4]: 0.028 µg/mL; concentration at 2.5 h [2, 4]: 0.0217 µg/mL; concentration at 3 h [2, 4]: 0.0365 µg/mL; concentration at 3.5 h [2, 4]: 0.0151 µg/mL; concentration at 4 h [2, 4]: 0.0129 µg/mL; concentration at 5 h [2, 4]: 0.0162 µg/mL; concentration at 6 h [2, 4]: 0.00529 µg/mL; concentration at 8 h [2, 4]: 0.00169 µg/mL; concentration at 10 h [2, 4]: 0 µg/mL; concentration at 12 h [2, 4]: 0 µg/mL; concentration at 24 h [2, 4]: 0 µg/mL; concentration at 0 h [2, 5]: 0 µg/mL; concentration at 0.5 h [2, 5]: 0.0829 µg/mL; concentration at 1 h [2, 5]: 0.0756 µg/mL; concentration at 1.5 h [2, 5]: 0.05 µg/mL; concentration at 2 h [2, 5]: 0.0243 µg/mL; concentration at 2.5 h [2, 5]: 0.0131 µg/mL; concentration at 3 h [2, 5]: 0.00705 µg/mL; concentration at 3.5 h [2, 5]: 0 µg/mL; concentration at 4 h [2, 5]: 0 µg/mL; concentration at 5 h [2, 5]: 0 µg/mL; concentration at 6 h [2, 5]: 0 µg/mL; concentration at 8 h [2, 5]: 0 µg/mL; concentration at 10 h [2, 5]: 0 µg/mL; concentration at 12 h [2, 5]: 0 µg/mL; concentration at 24 h [2, 5]: 0 µg/mL; concentration at 0 h [2, 6]: 0 µg/mL; concentration at 0.5 h [2, 6]: 0.0019 µg/mL; concentration at 1 h [2, 6]: 0.0411 µg/mL; concentration at 1.5 h [2, 6]: 0.109 µg/mL; concentration at 2 h [2, 6]: 0.0782 µg/mL; concentration at 2.5 h [2, 6]: 0.0539 µg/mL; concentration at 3 h [2, 6]: 0.0439 µg/mL; concentration at 3.5 h [2, 6]: 0.0335 µg/mL; concentration at 4 h [2, 6]: 0.022 µg/mL; concentration at 5 h [2, 6]: 0.0206 µg/mL; concentration at 6 h [2, 6]: 0.0119 µg/mL; concentration at 8 h [2, 6]: 0.00208 µg/mL; concentration at 10 h [2, 6]: 0 µg/mL; concentration at 12 h [2, 6]: 0 µg/mL; concentration at 24 h [2, 6]: 0 µg/mL; concentration at 0 h [2, 7]: 0 µg/mL; concentration at 0.5 h [2, 7]: 0.0154 µg/mL; concentration at 1 h [2, 7]: 0.0271 µg/mL; concentration at 1.5 h [2, 7]: 0.048 µg/mL; concentration at 2 h [2, 7]: 0.0868 µg/mL; concentration at 2.5 h [2, 7]: 0.0658 µg/mL; concentration at 3 h [2, 7]: 0.0595 µg/mL; concentration at 3.5 h [2, 7]: 0.0311 µg/mL; concentration at 4 h [2, 7]: 0.0185 µg/mL; concentration at 5 h [2, 7]: 0.00961 µg/mL; concentration at 6 h [2, 7]: 0.00465 µg/mL; concentration at 8 h [2, 7]: 0.00135 µg/mL; concentration at 10 h [2, 7]: 0 µg/mL; concentration at 12 h [2, 7]: 0 µg/mL; concentration at 24 h [2, 7]: 0 µg/mL; concentration at 0 h [2, 8]: 0 µg/mL; concentration at 0.5 h [2, 8]: 0.0228 µg/mL; concentration at 1 h [2, 8]: 0.0421 µg/mL; concentration at 1.5 h [2, 8]: 0.0585 µg/mL; concentration at 2 h [2, 8]: 0.0499 µg/mL; concentration at 2.5 h [2, 8]: 0.0348 µg/mL; concentration at 3 h [2, 8]: 0.0342 µg/mL; concentration at 3.5 h [2, 8]: 0.0204 µg/mL; concentration at 4 h [2, 8]: 0.012 µg/mL; concentration at 5 h [2, 8]: 0.0115 µg/mL; concentration at 6 h [2, 8]: 0.00528 µg/mL; concentration at 8 h [2, 8]: 0.00122 µg/mL; concentration at 10 h [2, 8]: 0 µg/mL; concentration at 12 h [2, 8]: 0 µg/mL; concentration at 24 h [2, 8]: 0 µg/mL; AUC(0-inf) [2, 9]: 0.163 µg·h/mL; AUC(0-t) [2, 9]: 0.161 µg·h/mL; Cmax [2, 9]: 0.0585 µg/mL; half-life [2, 9]: 55.8 min
